Measured values published in patent US8858968B2, “Use of tyrosine-arginine dipeptide and niacinamide as substance P antagonist” (L'Oreal, priority 2005, dated 2014).
Ends that are not written are not given here.

Legend:
[1] = test system: human skin kept under survival conditions; experiment: Histological evaluation of the average surface area of the capillaries in human skin kept under survival conditions, stimulated with substance P; type: cell-based; conditions: for effect on surface area / dilatation of the dermal capillaries (in words): compared with substance P-treated skin and control skin; for Percentage of dilated dermal capillaries: substance P 10 μM in culture medium, niacinamide 0.5%, dipeptide 0.1% (b140 prints the reverse), mean +/− spread
Protocol: The activity of each of the active agents and of the combination thereof is evaluated in a model of human skin kept under survival conditions. After several hours of re-equilibration of the skin with culture medium (antibiotic+SVF), the culture medium is renewed and substance P at 10 (M, with or without each of the active agents or the combination thereof, is (are) added to the culture medium. […] Morphometric analysis of the surface area (μm^2) occupied by the lumen of the vessels is carried out by microscopic observation from sections: the skin fragments are fixed in Bouin's solution and embedded in paraffin and then stained with haemalun-eosine. The vascular dilatation is evaluated by counting the number of dilated vessels over the entire histological section (16 fields at 40×magnification). This analysis makes it possible to determine the average surface area (μm^2) occupied by the vessels in the dermis.

[2] = test system: human skin kept under survival conditions; experiment: Histological evaluation of dermal oedema (semi-quantitative score) on the skin sections of Example 1; type: cell-based; conditions: for effect on dermal oedema (in words): compared with substance P-stimulated skin and control skin; for Dermal oedema score (0-3): human skin explant, substance P 10 μM, niacinamide 0.5%, dipeptide 0.1% (b140 prints the reverse), mean +/− spread
Protocol: The activity of each of the active agents and of the combination thereof is evaluated in a model of human skin kept under survival conditions. […] Using the sections prepared in Example 1, the oedema is evaluated by means of semi-quantitative scores: • score 0: no oedema • score 1: very slight oedema • score 2: moderate oedema • score 3: considerable oedema

Q: How did the “effect on surface area / dilatation of the dermal capillaries (in words)” value [1] turn out when `NC(=O)c1cccnc1` [niacinamide, pyridine-3-carboxamide] was run?
A: back to a state corresponding to the control

Q: What about the “Percentage of dilated dermal capillaries” value ([1]; human skin explant) of the same compound?
A: 108 +/− 27.6

Q: And the “effect on dermal oedema (in words)” value [2]?
A: back to a state corresponding to the control

Q: What about the “Dermal oedema score (0-3)” value [2] of the same compound?
A: 1.03 +/− 0.64

Q: Which results are given for “N-acetyl-tyrosine-arginine-decahexyl ester [dipeptide]”?
A: effect on surface area / dilatation of the dermal capillaries (in words) [1]: back to a state corresponding to the control; Percentage of dilated dermal capillaries ([1]; human skin explant): 103.16 +/− 34; effect on dermal oedema (in words) [2]: back to a state corresponding to the control; Dermal oedema score (0-3) [2]: 1 +/− 0.6

Q: Which “Percentage of dilated dermal capillaries” value ([1]; human skin explant) does the source give for “substance P: polypeptide (undecapeptide) produced and released by a nerve ending; used at 10 μM as stimulus (RPKPQQFFGLM; ends and bridges not checked; UniProt P20366 58-68, looked up)” here?
A: 161.6 +/− 56.6

Q: And the “increase in the surface area compared with the normal skin” value ([1]; substance P at 10 μM)?
A: 63%

Q: What about the “average surface area occupied by the vessels in the dermis” value ([1]; substance P at 10 μM, human skin explant) of the same compound?
A: 161.6+/−56.6 μm^2

Q: And the “Dermal oedema score (0-3)” value [2]?
A: 1.9 +/− 0.7

Q: What about the “increase in the oedema score” value ([2]; treatment with substance P versus control skin) of the same compound?
A: 121%

Q: What about the oedema score ([2]; treatment with substance P, score 0-3) of the same compound?
A: 1.9+/−0.64
